According to patent publication US8703165B2, “Spiro fused 1-amino-piperdine pyrrolidine dione derivatives with pesticidal activity” (Syngenta Crop Protection, Inc., priority 2009, dated 2014):

Which melting point does the source give for `Cc1cc(C)c(C2C(=O)OC3(CCN(N(C)C)CC3)C2=O)c(C)c1` (stereo not shown) [A11, 8-Dimethylamino-3-(2,4,6-trimethyl-phenyl)-1-oxa-8-azaspiro[4.5]decane-2,4-dione] here?
The melting point was over 200 °C.
